Earlier results in patent publication US10849951B2, “Use of PHY906 as treatment for inflammatory bowel disease and/or irritable bowel syndrome” (priority 2007, dated 2020).

Tests used:
[1] = target: bacterial 13-glucuronidase (Escherichia coli, UniProt P05804)
[2] = system: patients; conditions: NCI Common Toxicity criteria
[3] = system: perineal Crohn's; conditions: human, in vivo

Chain of bacterial 13-glucuronidase (P05804 whole entry): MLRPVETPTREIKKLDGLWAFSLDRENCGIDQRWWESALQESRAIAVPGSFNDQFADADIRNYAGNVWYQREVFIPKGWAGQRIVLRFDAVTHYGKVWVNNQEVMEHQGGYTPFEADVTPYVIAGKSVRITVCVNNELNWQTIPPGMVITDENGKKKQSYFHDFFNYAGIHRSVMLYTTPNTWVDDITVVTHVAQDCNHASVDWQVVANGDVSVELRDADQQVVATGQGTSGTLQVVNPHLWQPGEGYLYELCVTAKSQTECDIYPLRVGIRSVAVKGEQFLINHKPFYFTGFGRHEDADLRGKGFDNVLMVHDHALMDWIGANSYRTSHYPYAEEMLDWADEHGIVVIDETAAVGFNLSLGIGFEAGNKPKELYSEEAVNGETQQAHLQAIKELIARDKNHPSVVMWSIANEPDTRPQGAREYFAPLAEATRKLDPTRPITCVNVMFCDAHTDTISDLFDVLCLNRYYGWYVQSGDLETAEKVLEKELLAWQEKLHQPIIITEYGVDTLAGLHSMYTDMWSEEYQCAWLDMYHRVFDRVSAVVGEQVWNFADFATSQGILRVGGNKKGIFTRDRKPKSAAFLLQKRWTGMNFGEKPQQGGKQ

For `O=c1cc(-c2ccccc2)oc2cc(O)c(O)c(O)c12` [Baicalein], the “inhibition of bacterial 13-glucuronidase” value [1] is listed as “feedback inhibitor”.

In the case of `CCc1c2c(nc3ccc(OC(=O)N4CCC(N5CCCCC5)CC4)cc13)-c1cc3c(c(=O)n1C2)COC(=O)[C@]3(O)CC` [CPT-11, irinotecan], the “patients with diarrhea classified grade 3 (serious) or grade 4 (life-threatening)” value [2] is listed as “about 40%”.

For `Cc1ncc([N+](=O)[O-])n1CCO` [Metronidazole, metronidazole], the “cases in which managing perineal Crohn's is effective” value [3] is listed as “over 50%”.
